# What was measured:
# [1] = tested on: colorectal cancer patients (stage II/III) after potentially curative therapy; assay: VICTOR trial: disease-free survival and recurrence; format: in vivo, human
# Description: (§1) This was a phase III randomised, placebo-controlled double-blind trial of R in patients after potentially-curative surgery and completion of adjuvant therapy for stage II/III CRC. 7000 patients were planned to receive 25 mg R daily or an identical placebo (P) for 2 or 5 years, however the trial was terminated early after the worldwide withdrawal of R. A revised protocol and statistical analysis plan permitted detection of a reduction (HR=0.75) in risk of death with 87% power, with one pre-planned event-driven interim analysis.
# Patients were randomly assigned to receive R or P at 151 hospitals in the United Kingdom. Inclusion criteria included: histologically proven stage II and III colorectal carcinoma in patients who had undergone complete resection of the primary tumour; WHO Performance Status 0 or 1; haematological, liver and renal function within the normal range. All patients had completed potentially curative therapy (surgery+/−radiotherapy+/−chemotherapy) 12 or fewer weeks previously and had given written informed consent. Patients with active peptic ulceration or gastrointestinal bleeding in the past year, a history of adverse reactions to NSAIDs, or a known sensitivity to R were excluded, as were those receiving long-term NSAID therapy (except for low-dose aspirin, <100 mg per day), those younger than 18 years, and women who were pregnant, lactating, or premenopausal but not using contraception. Patients with a history of cancer (other than adequately treated in situ carcinoma of the cervix, basal or squamous-cell carcinoma), inflammatory bowel disease, or severe congestive heart failure were also excluded.
# It was planned to randomly allocate R (one 25-mg tablet daily) or identical P to 7000 patients, with half of each group receiving the study drug for 2 or 5 years. Suitable patients were randomly assigned in a double blind fashion to R or P through the VICTOR Trial Office, which supplied drugs to participating hospitals every 6 months. Minimisation was used to balance allocations by stage (II, III), disease site (colon, rectum, recto-sigmoid), age (<50, 50-59, 60-69, 70+) prior adjuvant chemotherapy and radiotherapy.
# (§2) Data-collection forms were amended to solicit baseline data on cardiovascular risk factors, for all patients After worldwide withdrawal of rofecoxib all investigators and patients were informed, study treatment was stopped, and follow-up continued, at 3, 6, 12, 18 and 24 months after randomisation and annually thereafter. Patients received a colonoscopy 1-2 years after primary surgery and 2- to 3-yearly thereafter; a CT scan about 1 year after surgery; clinical examination and routine blood tests at outpatient visits. All recurrences were confirmed by CT or MRI scan and patients were flagged for survival with the UK's Office of National Statistics. Adverse event data were recorded systematically throughout the study and were reviewed by the trials team (RM, DJK and MJL) to clarify diagnoses.
# The original study was powered to detect a reduction in risk of death between treatments for stage II and stage III separately, (hazard ratio 0.80), with type I error 0.05. The modified statistical plan, after premature closure with 2434 patients, permitted detection of a reduction in risk of death of HR 0.75, 87% power, with type I error 0.05, and one interim analysis specified according to an O'Brien-Fleming alpha-spending rule when there were 350 events. The threshold for statistical significance for OS at this analysis is p<0.01325. OS, the primary endpoint, was measured from randomisation to death from any cause. Secondary endpoints include DFS, measured from randomisation to recurrence or death from any cause and recurrence-free survival, measured from randomisation to recurrence and/or colorectal cancer death. This is the report of the interim analysis, with 368 deaths. Kaplan-Meier curves and log-rank analysis were used for comparisons of OS and DFS. Subgroups were examined using HR plots. […]
# [2] = tested on: colorectal cancer patients (stage II/III) after potentially curative therapy; assay: VICTOR trial: safety (serious adverse events, early discontinuations), treated population; format: in vivo
# Description: as §1, §2
# The original study was powered to detect a reduction in risk of death between treatments for stage II and stage III separately, (hazard ratio 0.80), with type I error 0.05. The modified statistical plan, after premature closure with 2434 patients, permitted detection of a reduction in risk of death of HR 0.75, 87% power, with type I error 0.05, and one interim analysis specified according to an O'Brien-Fleming alpha-spending rule when there were 350 events. The threshold for statistical significance for OS at this analysis is p<0.01325. OS, the primary endpoint, was measured from randomisation to death from any cause. Secondary endpoints include DFS, measured from randomisation to recurrence or death from any cause and recurrence-free survival, measured from randomisation to recurrence and/or colorectal cancer death. This is the report of the interim analysis, with 368 deaths. Kaplan-Meier curves and log-rank analysis were used for comparisons of OS and DFS. Subgroups were examined using HR plots. Hazard ratios and their confidence intervals were calculated from log-rank statistics and variances. Cox's proportional hazards models were used to estimate the treatment effect adjusted by prognostic factors. All reported p-values are two-sided. For analysis of OS, patients not reported as dead were censored at their last known date alive. For analysis of DFS, patients who were alive and recurrence-free were censored at their last known recurrence-free date. For analysis of DFS in first year after randomisation, patients who were alive and recurrence-free at one year were censored at that time. Numbers of SAEs were compared using a normal approximation to the Poisson distribution.
# Serious Adverse Events (SAEs) were collected for each patient from enrolment until the data lock of November 2007. Cardiovascular thrombotic events have previously been reported in detail. In summary, of 23 confirmed cardiovascular thrombotic events that occurred within the treatment period or within 14 days after cessation, 16 occurred in the R arm and 7 in the P arm with an estimated relative risk of 2.66 (95% confidence intervals (CI) 1.03-6.86; p=0.04). These included fatal and nonfatal myocardial infarction, unstable angina, sudden death from cardiac causes, fatal and nonfatal ischemic stroke, transient ischemic attack, peripheral arterial thrombosis, peripheral venous thrombosis, and pulmonary embolism. Fourteen more cardiovascular thrombotic events, six in the R arm and eight in the P arm, were reported within the two years after the trial closure, with an overall total period unadjusted relative risk of 1.50 (95% CI 0.76-2.94; p=0.24). […]
smiles,measurement,setting,value
"CS(=O)(=O)c1ccc(C2=C(c3ccccc3)C(=O)OC2)cc1 [rofecoxib, 3-phenyl-4-(4(methylsulfonyl)phenyl)-2-(5H)-furanone]","number of patients still at risk (disease free survival, data of FIG. 6)",[1]; 1 year from randomisation,1031
same,"number of patients still at risk (disease free survival, data of FIG. 6)",[1]; 2 years from randomisation,824
same,"number of patients still at risk (disease free survival, data of FIG. 6)",[1]; 3 years from randomisation,449
same,"number of patients still at risk (disease free survival, data of FIG. 6)",[1]; 4 years from randomisation,114
same,"number of patients still at risk (disease free survival, data of FIG. 6)",[1]; 5 years from randomisation,7
same,"HR for death or recurrence adjusted for stage, age, radiotherapy group and gender","[1]; 95% CI 0.78, 1.07, p=0.30",0.91
same,"HR for disease recurrence or death from any cause (DFS), R compared with P","[1]; 95% CI 0.78 to 1.07, P=0.25",0.91
same,3-year DFS rate,"[1]; 95% CI 72.0 to 77.3, P group 72.6%",74.7%
same,Number of colorectal cancer recurrence events,[1]; 297 in P arm,271
same,Number of DFS events,[1]; 316 in P group,291
same,HR for colorectal cancer recurrence,"[1]; R vs P, 95% CI 0.77-1.06, p=0.22",0.90
same,DFS events in the first year at risk from randomisation,"[1]; non-prespecified analysis, vs 145 in P, p=0.07",117
same,Overall benefit in disease-free or overall survival (in words),[1]; specified analyses,no overall benefit
same,Recurrences in year 2,[1]; vs 88 in P arm,99
same,Recurrences in the first year,"[1]; vs 141 in P arm, p=0.06",112
same,"DFS events, year 2 onwards","[1]; vs 171 in P, p=0.97",174
same,Early discontinuation of study drug for hypertension (patients),[2]; 1 in P,7
same,Early discontinuation of study drug for renal impairment (patients),[2]; 1 in P,7
same,SAE: cardiac failure of unknown aetiology (patients),[2]; 1 in P,4
same,SAE: stable angina (patients),[2]; 2 in P,5
same,SAE: various infections (patients),"[2]; 3 in P, p=0.05",10
same,Early discontinuation of study drug for diarrhea (patients),[2]; 4 in P,4
same,SAE: cardiac arrhythmias (patients),[2]; 4 in P,3
same,Early discontinuation of study drug for gastrointestinal pain or heartburn (patients),[2]; 5 in P,15
same,Early discontinuation of study drug for analgesia required for arthritis (patients),[2]; 15 in P,4
same,Overall total period unadjusted relative risk of cardiovascular thrombotic events,"[2]; 95% CI 0.76-2.94, p=0.24",1.50
same,Early discontinuation of study drug for heart failure (patients),[2]; in vivo,2
same,Enhanced cardiovascular adverse event profile,[2]; in vivo,1-2%
same,"Other SAEs (depression, neuralgia, polymyositis, epilepsy), frequency",[2]; in vivo,less than 0.2%
same,SAE: hypertension (patients),[2]; in vivo,2
same,"Gastro-intestinal SAEs (indigestion/gastroduodenal ulceration, diarrhoea, constipation, obstruction), frequency in patients",[2]; no significant difference comparing R and P,less than 1%
same,All-cause SAEs (in words),[2]; p=0.05,there was an association with R administration
same,Estimated relative risk of cardiovascular thrombotic events,"[2]; treatment period or within 14 days after cessation, 95% CI 1.03-6.86, p=0.04",2.66
same,Confirmed cardiovascular thrombotic events,"[2]; within the treatment period or within 14 days after cessation, 7 in P arm",16
same,Further cardiovascular thrombotic events,"[2]; within the two years after the trial closure, eight in P arm",six

# Source: US20100286262A1, “PTGS2 HAPLOTYPES” (priority 2007, published 2010)
